Biological target: T1, AmpC β-lactamase (Escherichia coli, UniProt P00811)
T1 construct: Recombinant E. coli AmpC (amino acids 20–377); purchased MyBioSource.com
Assay: biochemical
Set-up: species or system E. coli
Conditions: 10 μM compound; detergent-sensitive modulation
Protocol: Selected compounds were assessed for aggregation using a modified AmpC β-lactamase counter-screen[24],[32],[64]. Recombinant E. coli AmpC (amino acids 20–377) was obtained from MyBioSource.com. Testing was performed in ALARM NMR buffer (25 mM sodium phosphate, pH 7.0) in flat-bottom UV-transparent 96-well microplates in 150 μL reaction volumes. Compounds were tested in triplicate at 10 μM final concentrations in either the presence or absence of freshly-prepared 0.01% Triton X-100 (v/v). Final concentration of DMSO was 2.0% (v/v). Compounds were incubated with ~5 nM AmpC in 147 μL reaction buffer for 5 min at RT, followed by the addition of 3 μL of nitrocefin substrate (100 μM final concentration). Reaction solutions were gently mixed by pipetting up and down three times using a multichannel pipette. […] Percent activity was normalized to DMSO-only controls. Fluconazole and lidocaine were included as negative aggregation control compounds. Rottlerin was included as a positive aggregation control compound. Aggregators were defined as compounds with significant detergent-dependent changes in AmpC activity (t-test, adjusted P-value <0.05; mean differences greater than 30%). Activators were defined as compounds that increased AmpC enzymatic activity.

T1 sequence (P00811 20-377): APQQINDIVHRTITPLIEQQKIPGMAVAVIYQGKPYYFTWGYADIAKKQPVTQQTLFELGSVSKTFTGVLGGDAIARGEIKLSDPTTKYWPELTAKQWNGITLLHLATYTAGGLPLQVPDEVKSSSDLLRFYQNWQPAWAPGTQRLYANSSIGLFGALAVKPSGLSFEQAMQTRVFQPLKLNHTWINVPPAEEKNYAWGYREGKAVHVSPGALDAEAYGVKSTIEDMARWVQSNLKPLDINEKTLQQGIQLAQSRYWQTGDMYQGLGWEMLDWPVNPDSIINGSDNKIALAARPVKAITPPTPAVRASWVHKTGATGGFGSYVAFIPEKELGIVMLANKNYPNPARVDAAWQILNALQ

With `Cl.Cl.O=C(O)Cn1nnc(-c2ccc(CN(CCCCOc3ccc(CN4CCCC4)cc3)CCc3ccccc3)cc2)n1` [Compound 20, TH1834] as the compound, how does the “AmpC counter-screen result” value read?
The value was “likely aggregators”.

Which “AmpC counter-screen result” value does the source give for `CCCCCCCc1ccc(CCc2cccc(O)c2C(=O)O)cc1` [Compound 15, MG 149] here?
Its value is “negative”.

Same assay, conditions: 10 μM compound; ± 0.01% Triton X-100

With `Cc1cc2c(C(C)C)c(O)c(O)c(C=O)c2c(O)c1-c1c(C)cc2c(C(C)C)c(O)c(O)c(C=O)c2c1O` [Compound 16, Gossypol] as the compound, how does the AmpC aggregation counter-screen read?
The AmpC aggregation counter-screen was “Detergent-sensitive (Aggregators were defined as compounds with significant detergent-dependent changes in AmpC activity (t-test, adjusted P-value <0.05; mean differences greater than 30%))”.

Which AmpC aggregation counter-screen does the source give for `COc1cc(/C=C/c2cc(/C=C/c3ccc(O)c(OC)c3)n(-c3ccc(C(=O)[O-])cc3)n2)ccc1O.[Na+]` [Compound 17, CTK7A] here?
Its AmpC aggregation counter-screen is “Detergent-sensitive (activator)”.

For `Cl.Cl.O=C(O)Cn1nnc(-c2ccc(CN(CCCCOc3ccc(CN4CCCC4)cc3)CCc3ccccc3)cc2)n1` [Compound 20, TH1834], which AmpC aggregation counter-screen is on record?
Its AmpC aggregation counter-screen is “Detergent-sensitive (activator)”.

For `CCCCCCCc1ccc(CCc2cccc(O)c2C(=O)O)cc1` [Compound 15, MG 149], which AmpC aggregation counter-screen is on record?
Its AmpC aggregation counter-screen is “Detergent-insensitive”.

Which AmpC aggregation counter-screen does the source give for Garcinol [Compound 13] here?
Its AmpC aggregation counter-screen is “Detergent-sensitive (Aggregators were defined as compounds with significant detergent-dependent changes in AmpC activity (t-test, adjusted P-value <0.05; mean differences greater than 30%))”.

For `CCCCCCCCCCCCCCCc1cccc(O)c1C(=O)O` [Compound 14, Anacardic acid], which AmpC aggregation counter-screen is on record?
Its AmpC aggregation counter-screen is “Detergent-sensitive (Aggregators were defined as compounds with significant detergent-dependent changes in AmpC activity (t-test, adjusted P-value <0.05; mean differences greater than 30%))”.

Same assay, conditions: read-out: % Inhibition, AmpC

Which inhibition at 10 µM does the source give for `COc1cc(/C=C/c2cc(/C=C/c3ccc(O)c(OC)c3)n(-c3ccc(C(=O)[O-])cc3)n2)ccc1O.[Na+]` [Compound 17, CTK7A] here?
Its inhibition at 10 µM is -52 ± 35%.

Which inhibition at 10 µM does the source give for `Cl.Cl.O=C(O)Cn1nnc(-c2ccc(CN(CCCCOc3ccc(CN4CCCC4)cc3)CCc3ccccc3)cc2)n1` [Compound 20, TH1834] here?
The inhibition at 10 µM was -63 ± 26%.

Test system: not listed separately
Assay: Absorbance spectra
Type: physicochemical
Conditions: 25 mM sodium phosphate, pH 7.0
Protocol: Selected test compounds were assessed for absorption between 300 and 750 nm. Most compound absorption spectra were obtained at 100, 50, and 10 μM final compound concentrations in ALARM NMR buffer (25 mM sodium phosphate, pH 7.0). Final concentration of DMSO was constant at 2.0% (v/v). Compounds were allowed to incubate at RT in buffer for 10 min in UV-transparent polystyrene 384-well plates. Absorbance spectra were then obtained on a SpectraMax M3 or BMG Labtech CLARIOstar microplate reader at 25 °C. Significant absorbance was defined as molar absorptivity constants greater than 2000 M^−1 cm^−1 at wavelengths greater than 300 nm.

With `Cc1cc2c(C(C)C)c(O)c(O)c(C=O)c2c(O)c1-c1c(C)cc2c(C(C)C)c(O)c(O)c(C=O)c2c1O` [Compound 16, Gossypol] as the compound, how does the “Absorption max (nm)” value read?
Its value is 385 nm.

For `COc1cc(/C=C/c2cc(/C=C/c3ccc(O)c(OC)c3)n(-c3ccc(C(=O)[O-])cc3)n2)ccc1O.[Na+]` [Compound 17, CTK7A], which “Absorption max (nm)” value is on record?
Its value is 325 nm.

With `Cl.Cl.O=C(O)Cn1nnc(-c2ccc(CN(CCCCOc3ccc(CN4CCCC4)cc3)CCc3ccccc3)cc2)n1` [Compound 20, TH1834] as the compound, how does the “Absorption max (nm)” value read?
Its value is “Nominal”.

Which “Absorption max (nm)” value does the source give for `CCCCCCCc1ccc(CCc2cccc(O)c2C(=O)O)cc1` [Compound 15, MG 149] here?
The value was 300 nm.

With Garcinol [Compound 13] as the compound, how does the “Absorption max (nm)” value read?
The value was 290 nm.

For `CCCCCCCCCCCCCCCc1cccc(O)c1C(=O)O` [Compound 14, Anacardic acid], which “Absorption max (nm)” value is on record?
The value was 305 nm.

Same assay, conditions: 300-750 nm; 25 mM sodium phosphate, pH 7.0

Which Absorbance counter-screen does the source give for `Cc1cc2c(C(C)C)c(O)c(O)c(C=O)c2c(O)c1-c1c(C)cc2c(C(C)C)c(O)c(O)c(C=O)c2c1O` [Compound 16, Gossypol] here?
Its Absorbance counter-screen is “Flagged (Significant absorbance was defined as molar absorptivity constants greater than 2000 M^−1 cm^−1 at wavelengths greater than 300 nm)”.

Which Absorbance counter-screen does the source give for `COc1cc(/C=C/c2cc(/C=C/c3ccc(O)c(OC)c3)n(-c3ccc(C(=O)[O-])cc3)n2)ccc1O.[Na+]` [Compound 17, CTK7A] here?
Its Absorbance counter-screen is “Flagged (Significant absorbance was defined as molar absorptivity constants greater than 2000 M^−1 cm^−1 at wavelengths greater than 300 nm)”.

With `Cl.Cl.O=C(O)Cn1nnc(-c2ccc(CN(CCCCOc3ccc(CN4CCCC4)cc3)CCc3ccccc3)cc2)n1` [Compound 20, TH1834] as the compound, how does the Absorbance counter-screen read?
Its Absorbance counter-screen is “Negative”.

With `CCCCCCCc1ccc(CCc2cccc(O)c2C(=O)O)cc1` [Compound 15, MG 149] as the compound, how does the Absorbance counter-screen read?
The Absorbance counter-screen was “Negative”.

For Garcinol [Compound 13], which Absorbance counter-screen is on record?
The Absorbance counter-screen was “Negative”.

With `CCCCCCCCCCCCCCCc1cccc(O)c1C(=O)O` [Compound 14, Anacardic acid] as the compound, how does the Absorbance counter-screen read?
Its Absorbance counter-screen is “Negative”.

Same assay, conditions: at absorption max

With `Cc1cc2c(C(C)C)c(O)c(O)c(C=O)c2c(O)c1-c1c(C)cc2c(C(C)C)c(O)c(O)c(C=O)c2c1O` [Compound 16, Gossypol] as the compound, how does the “Molar absorptivity” value read?
Its value is 22000 M⁻¹ cm⁻¹.

For `COc1cc(/C=C/c2cc(/C=C/c3ccc(O)c(OC)c3)n(-c3ccc(C(=O)[O-])cc3)n2)ccc1O.[Na+]` [Compound 17, CTK7A], which “Molar absorptivity” value is on record?
Its value is 30000 M⁻¹ cm⁻¹.

Test system: not listed separately
Assay: Autofluorescence counter-screen
Type: physicochemical
Conditions: autofluorescence at eight fluorophore settings; 32 nM-100 μM compound
Protocol: Selected test compounds were assessed for autofluorescence using an adaption of published procedures. […] Final concentration of DMSO was constant at 1.0% (v/v). Compounds and fluorophore standards were transferred as 10 mM DMSO stock solutions to 384-well black polystyrene microplates via Echo 550 dispenser. The plate arrangement was purposefully designed to minimize optical crosstalk by fluorophore standards. All measurements were performed in ALARM NMR buffer (25 mM sodium phosphate, pH 7.0) at 25 °C. Aliquots of 20 μL buffer were dispensed into microplate wells via ThermoFisher Multidrop dispenser. Compounds were shaken for 1 min on a plate shaker, centrifuged briefly for 1 min at 1000×g, then allowed to incubate at RT in buffer for 10 min before measuring fluorescence intensity on a SpectraMax M3 plate reader under reduced lighting. […] Bandwidth filters were set to default mode. Fluorescence intensity was measured for each test compound using each of the eight fluorophore standard settings. Fluorophores present on each plate were then used to construct normalized fluorescence dose-responses (“fluorophore-equivalent concentrations”, FEC). Fluorescence intensity for each test compound was converted to the appropriate FEC.

With `Cc1cc2c(C(C)C)c(O)c(O)c(C=O)c2c(O)c1-c1c(C)cc2c(C(C)C)c(O)c(O)c(C=O)c2c1O` [Compound 16, Gossypol] as the compound, how does the Fluorescence counter-screen read?
The Fluorescence counter-screen was “Negative”.

For `COc1cc(/C=C/c2cc(/C=C/c3ccc(O)c(OC)c3)n(-c3ccc(C(=O)[O-])cc3)n2)ccc1O.[Na+]` [Compound 17, CTK7A], which Fluorescence counter-screen is on record?
The Fluorescence counter-screen was “Negative”.

For `Cl.Cl.O=C(O)Cn1nnc(-c2ccc(CN(CCCCOc3ccc(CN4CCCC4)cc3)CCc3ccccc3)cc2)n1` [Compound 20, TH1834], which Fluorescence counter-screen is on record?
Its Fluorescence counter-screen is “Negative”.

For `CCCCCCCc1ccc(CCc2cccc(O)c2C(=O)O)cc1` [Compound 15, MG 149], which Fluorescence counter-screen is on record?
The Fluorescence counter-screen was “Negative”.

Which Fluorescence counter-screen does the source give for Garcinol [Compound 13] here?
Its Fluorescence counter-screen is “Negative”.

For `CCCCCCCCCCCCCCCc1cccc(O)c1C(=O)O` [Compound 14, Anacardic acid], which Fluorescence counter-screen is on record?
Its Fluorescence counter-screen is “Negative”.

Test system: not listed separately
Assay: Fluorescence quenching counter-screen
Type: physicochemical
Conditions: 10 μM fluorophore; 32 nM-100 μM compound
Protocol: Selected test compounds were assessed for fluorescence quenching using adaptions of previously published procedures[9],[24]. Briefly, test compounds and individual fluorophore standards were incubated together. The fluorescence intensity of these mixtures was compared to the fluorescence intensity of the same fluorophore standards minus test compounds. Each microplate contained positive control columns (DMSO plus fixed concentration of a single fluorophore), negative control columns (DMSO), and experimental wells (test compounds plus fixed concentration of a single fluorophore). […] Final concentration of DMSO was constant at 2.0% (v/v). […] All measurements were performed in ALARM NMR buffer (25 mM sodium phosphate, pH 7.0) at 25 °C. Aliquots of 20 μL buffer were dispensed into microplate wells via ThermoFisher Multidrop dispenser. Microplates were shaken for 1 min on a plate shaker, centrifuged briefly for 1 min at 1000×g, then allowed to incubate at RT for 10 min before measuring fluorescence intensity on a SpectraMax M3 plate reader under reduced lighting. Instrument settings for each fluorophore were unchanged from the aforementioned autofluorescence studies.

With `Cc1cc2c(C(C)C)c(O)c(O)c(C=O)c2c(O)c1-c1c(C)cc2c(C(C)C)c(O)c(O)c(C=O)c2c1O` [Compound 16, Gossypol] as the compound, how does the Quenching counter-screen read?
Its Quenching counter-screen is “Flagged (Significant fluorescence quenching was defined as signal reduction greater than 25% of the corresponding fluorophore signal at any test compound concentration)”.

Which Quenching counter-screen does the source give for `COc1cc(/C=C/c2cc(/C=C/c3ccc(O)c(OC)c3)n(-c3ccc(C(=O)[O-])cc3)n2)ccc1O.[Na+]` [Compound 17, CTK7A] here?
The Quenching counter-screen was “Flagged (Significant fluorescence quenching was defined as signal reduction greater than 25% of the corresponding fluorophore signal at any test compound concentration)”.

With `Cl.Cl.O=C(O)Cn1nnc(-c2ccc(CN(CCCCOc3ccc(CN4CCCC4)cc3)CCc3ccccc3)cc2)n1` [Compound 20, TH1834] as the compound, how does the Quenching counter-screen read?
Its Quenching counter-screen is “Flagged (Significant fluorescence quenching was defined as signal reduction greater than 25% of the corresponding fluorophore signal at any test compound concentration)”.

Which Quenching counter-screen does the source give for `CCCCCCCc1ccc(CCc2cccc(O)c2C(=O)O)cc1` [Compound 15, MG 149] here?
Its Quenching counter-screen is “Flagged (Significant fluorescence quenching was defined as signal reduction greater than 25% of the corresponding fluorophore signal at any test compound concentration)”.

With Garcinol [Compound 13] as the compound, how does the Quenching counter-screen read?
The Quenching counter-screen was “Flagged (Significant fluorescence quenching was defined as signal reduction greater than 25% of the corresponding fluorophore signal at any test compound concentration)”.

For `CCCCCCCCCCCCCCCc1cccc(O)c1C(=O)O` [Compound 14, Anacardic acid], which Quenching counter-screen is on record?
The Quenching counter-screen was “Flagged (Significant fluorescence quenching was defined as signal reduction greater than 25% of the corresponding fluorophore signal at any test compound concentration)”.

Reference: publication PMC5688144, “Assay interference and off-target liabilities of reported histone acetyltransferase inhibitors” (Nature Communications, 2017)
